The assay addresses muscarinic receptors. As to the kind of experiment: Inhibition of ^3 H-oxotremorine-M binding to muscarinic receptors. The arrangement: species or system rat (male Sprague-Dawley, cerebral cortex). To be noted: 3 nM ^3 H-oxotremorine-M, rat cerebral cortical membranes, 15 min, 25° C., pH 7.4; concentration to inhibit specific binding 50%; read-out: Inhibition of ^3 H-Oxo. The procedure: The affinity of the compounds for the muscarinic receptors was determined using the non-selective agonist ligand, ^3 H-oxotremorine-M. Birdsdall N. J. M., Hulme E. C., and Burgen A. S. V., "The Character of Muscarinic Receptors in Different Regions of the Rat Brain", 207 Proc. Roy. Soc. 1 (London, Series B, 1980). Each compound was tested to determine the affinity of the compound for the muscarinic receptors using the following procedure.
For each in vitro binding, male Sprague-Dawley (Harlan Sprague-Dawley, Indianapolis, Ind.) rats weighing from about 100 to about 150 grams each were sacrificed by decapitation. The brains were quickly removed and the cerebral cortex were dissected from the brain. The cerebral cortex tissue was homogenized in 10 volumes of 0.32M sucrose and homogenized for about 10 minutes at about 1000×g. […]
The aforementioned homogenates mixture was incubated for about 15 minutes at about 25° C. and then the homogenates were filtered through glass filters (Whatman, GF/C) with vacuum. The filters were washed 3 times with about 2 ml of cold tris-Cl buffer, and placed in scintillation vials containing about 10 ml of scintillation fluid (Ready Protein+, Beckman, Fullerton, Calif.). Radioactivity trapped on the filters was determined by liquid scintillation spectrometry. Nonspecific binding was determined using 1 μM atropine. […]

IC50 data for one compound are collected here from patent US5545638A, “Method of treating gastrointestinal motility disorders” (Novo Nordisk A/S, priority 1995, dated 1996).

SMILES strings stand for the structures. Where a name gives a salt, the structure may show the parent alone.

Turning to `C=CCCCCOc1nsnc1C1=CCCN(C)C1` [Compound 33, 3-(3-(5-Hexenyloxy)-1,2,5-thiadiazol-4-yl)-1,2,5,6-tetrahydro-1-methylpyridine oxalate], the IC50 came to 2.7 nM.
